What was measured:
MOLM-13 cells = test: EPZ-5676 300 nM 7-day pre-treatment, then second compound 72 hours, ATPLite, IC50 shift (Example 6); type: cell-based, human; settings: 300 nM EPZ-5676 or DMSO 7-day pre-treatment, then 2nd compound 72 hours, Synergy = IC50 of 2nd compound decreased by 2-fold or more vs DMSO control
Method: (§1) Cells were then equilibrated in incubators for 24 hours before treatment with a second compound. Treated assay plates were incubated with a second compound for 72 hours. After this time, plates were developed for endpoint analysis using ATPLite to measure ATP content, which is used as an indicator of cell viability.
(§2) “N/D” means that IC50 of the second compound could not be determined for both conditions.

MOLM-13 (MLL-AF9) [1] = test: EPZ-5676 7-day pre-treatment, then second compound 72 hours, growth inhibition GI100 shift; primary screen and retest (Example 7); type: cell-based, human; settings: second compound 72 hours; for Combination with EPZ-5676, MOLM-13 (MLL-AF9) Retest: 150 nM EPZ-5676 7-day pre-treatment, Cell Titer Glo; for Combination with EPZ-5676, MOLM-13 (MLL-AF9) Primary screen: 300 nM EPZ-5676 7-day pre-treatment, ATPLite
Method: as §1
(§3) Cells were then treated with a second compound for 72 hours. After this time, plates were developed for endpoint analysis using Cell Titer Glo to measure ATP content, which is used as an indicator of cell viability.
(§4) “N/D” means the GI100 of the second compound could not be determined for both conditions and “-” means not tested.
(§5) Growth Inhibition (GI) as a measure of cell viability: The cell viability of vehicle was measured at the time of dosing the second agent (T0) and after seventy-two hours (T72). […] A GI 200% represents complete death of all cells in the culture well. Compounds reaching an activity plateau of GI 200% are considered cytotoxic. GI is calculated by applying the following test and equation: […]
(§6) where T is the signal measure for a test article, V is the vehicle-treated control measure, and V0 is the vehicle control measure at time zero.

SKM-1 (non-MLLr) = test: as above; type: cell-based, human; settings: 300 nM EPZ-5676 7-day pre-treatment; for Combination with EPZ-5676, SKM-1 (non-MLLr) Primary screen: ATPLite; for Combination with EPZ-5676, SKM-1 (non-MLLr) Retest: Cell Titer Glo
Method: as §1, §3, §4, §5, §6

OCI-AML-4 (MLL-ENL) = test: as above; type: cell-based; settings: 300 nM EPZ-5676 7-day pre-treatment, second compound 72 hours; for Combination with EPZ-5676, OCI-AML-4 (MLL-ENL) Primary screen: ATPLite; for Combination with EPZ-5676, OCI-AML-4 (MLL-ENL) Retest: Cell Titer Glo
Method: as §1, §3, §4, §5, §6

MOLM-13 (MLL-AF9) [2] = test: Combination proliferation study with Compound A2 (ATP/CellTiter-Glo, Chou-Talalay combination index); type: cell-based, human
Method in brief: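 Viability by CellTiter-Glo ATP luminescence; Fa relative to DMSO controls. Combination index by Chou-Talalay (CI<1 synergy, =1 additive, >1 antagonism).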

MV4-11 (MLL-AF4) = test: as above; type: cell-based, human; settings: for Combination with Compound A2, MV4-11 (MLL-AF4): 7 Day Cotreatment Model, Table 4
Method: The acute myelogenous leukemia cell lines MV4-11 (MLL-AF4) and MOLM-13 (MLL-AF9) were obtained from American Type Culture Collection (ATCC; Rockville, Md.) and Deutsche Sammlung von Mikroorganismen and Zellkulturen (DSMZ; Braunschweig, Germany) respectively.
(§7) Studies were performed using MLL-rearranged cell lines in vitro to evaluate the anti-proliferative effect of a combination of two agents together on cell growth. Initial proliferation studies were performed to determine the IC50 of a given compound in each cell line. The cell counts were measured by ATP quantitation using the Promega Cell Titer Glo kit and luminescence values corresponded to the amount of ATP in a given well.
Compounds were evaluated for synergy in the co-treatment phase by testing the compounds in a concentration range which was bracketed around their IC50 values. The compounds were plated to a 96 well plate in a matrix format (FIG. 3) which includes increasing concentrations of each drug in the combination in a constant ratio, in addition to the effect of each compound alone in the study. Cells were seeded and grown in the log-linear phase for 3 or 7 days in the co-treatment phase. Minimum inhibition (DMSO alone) controls were used in each plate to calculate fraction affected (Fa) of a test well. DMSO concentration was kept at 0.1% v/v.
The drug combination analysis was performed utilizing the Chou-Talalay method Synergy was determined using the software package Calcusyn by Biosoft. The combination index (CI) is a quantitative term used to describe the level of synergy or antagonism in a given test system. A combination index less than one indicates synergy, and a CI greater than one indicates antagonism. Further, strong synergism is achieved when the CI value falls below 0.3.
(§8) Graphs representing values of combination index (CI) versus Fractional effect (Fa) known as Fa-CI plots were generated and synergy was evaluated. Drug synergy was statistically defined by CI values less than 1, antagonism by CI>1 and additive effect by CI equal to 1.
as §8
(§9) The HP-D300 digital dispenser (Tecan) was used to dispense compounds in a combinatorial matrix. […] Cell viability was measured via ATP content using CellTiter-Glo® (Promega).
(§10) Viability was determined using CellTiter-Glo® (Promega).
as §7, with “Proliferation studies” for “Studies”, “MOLM-13, MV4-11 and SKM-1” for “MLL-rearranged”, “cancer cell killing” for “anti-proliferative”, “IC50 values” for “IC50”, “correspond” for “corresponded”
These studies were performed to evaluate both the combinatorial effect of compounds on cell killing and the durability of the effect by washing out one of the agents.
Compounds evaluated for synergy in the co-treatment phase were tested in a range which was bracketed around the IC50's. The compounds were plated to a 96 well plate in a matrix format which includes increasing concentrations of each drug in the combination in a constant ratio, in addition to the effect of each compound alone in the study.

[3] = tested on: SKM-1 (non-MLL-rearranged AML); test: as above; type: cell-based, human
Method: (§11) Graphs representing values of combination index (CI) versus Fractional effect (Fa) known as Fa-CI plots were generated and synergy was evaluated.
as §11, §9, §10
MV4-11 cells were maintained in IMDM supplemented with 10% fetal bovine serum. MOLM-13 and SKM-1 cells were maintained in Roswell Park Memorial Institute medium (RPMI) supplemented with 10% fetal bovine serum. They were cultured in flasks or plates in a humidified 5% CO2 atmosphere.
as §7, with “Proliferation studies” for “Studies”, “MOLM-13, MV4-11 and SKM-1” for “MLL-rearranged”, “cancer cell killing” for “anti-proliferative”, “IC50 values” for “IC50”, “correspond” for “corresponded”
Compounds evaluated for synergy in the co-treatment phase were tested in a range which was bracketed around the IC50's. The compounds were plated to a 96 well plate in a matrix format which includes increasing concentrations of each drug in the combination in a constant ratio, in addition to the effect of each compound alone in the study. Cells were seeded and grown in the log-linear phase for 3 or 7 days in the cotreatment phase. Maximum and minimum inhibition (DMSO alone) controls were used in each plate to calculate fraction affected (Fa) of a test well. DMSO concentration was kept at 0.1% v/v. The drug combination analysis was performed utilizing the Chou-Talalay method. Synergy was determined using the software package Calcusyn by Biosoft. The combination index (CI) is the term used to describe the level of synergy or antagonism in a given test system. A combination index less than one indicates synergy, and a CI greater than one indicates antagonism.
The drug combination analysis was performed using the Chou-Talalay method. Graphs representing values of combination index (CI) versus Fractional effect (Fa) known as Fa-CI plots were generated and synergy was evaluated.

SKM-1 cells = test: EPZ-5676 300 nM 7-day pre-treatment, then second compound 72 hours, ATPLite, IC50 shift (Example 6); type: cell-based, human; settings: SKM-1 cells; 300 nM EPZ-5676 or DMSO 7-day pre-treatment, then 2nd compound 72 hours, ATPLite; Synergy = IC50 of 2nd compound decreased by 2-fold or more vs DMSO control
Method: as §1, §2

[4] = 7 Day Cotreatment Model, Table 4

SMILES | MOLM-13 (summary of combination study: EPZ-5676 + 2nd compound) (MOLM-13 cells) | Combination with EPZ-5676, MOLM-13 (MLL-AF9) Retest (MOLM-13 (MLL-AF9) [1]) | Combination with EPZ-5676, MOLM-13 (MLL-AF9) Primary screen (MOLM-13 (MLL-AF9) [1]) | Combination with EPZ-5676, SKM-1 (non-MLLr) Primary screen (SKM-1 (non-MLLr)) | Combination with EPZ-5676, SKM-1 (non-MLLr) Retest (SKM-1 (non-MLLr)) | Combination with EPZ-5676, OCI-AML-4 (MLL-ENL) Primary screen (OCI-AML-4 (MLL-ENL)) | Combination with EPZ-5676, OCI-AML-4 (MLL-ENL) Retest (OCI-AML-4 (MLL-ENL)) | Combination with Compound A2, MOLM-13 (MLL-AF9) (MOLM-13 (MLL-AF9) [2]; [4]) | Combination with Compound A2, MOLM-13 (MLL-AF9) (MOLM-13 (MLL-AF9) [2]; Table 2, Example 3) | Combination of Compound A2 and anti-cancer agent, MV4-11 (MV4-11 (MLL-AF4); 7 Day Cotreatment) | Combination with Compound A2, MV4-111 MLL-AF4 (MV4-11 (MLL-AF4); Table 2, Example 3) | Combination with Compound A2, SKM-1 AML: Non-rearranged ([3]; Table 2, Example 3) | SKM-1 (summary of combination study: EPZ-5676 + 2nd compound) (SKM-1 cells) | Combination with Compound A2, MOLM-13 (MLL-AF9) (MOLM-13 (MLL-AF9) [2]; 7 Day Cotreatment Model, Table 4, listed as prednisolone) | Combination with Compound A2, MV4-11 (MLL-AF4) (MV4-11 (MLL-AF4)) | Combination with Compound A2, MV4-11 (MLL-AF4) (MV4-11 (MLL-AF4); listed as prednisolone) | Effect of Compound A2 on the antiproliferative activity of the second agent ([3]; SKM-1, non-MLL-rearranged, Example 5)
Cn1cnc2c(F)c(Nc3ccc(Br)cc3Cl)c(C(=O)NOCCO)cc21 [Selumetinib (AZD6244), Selumetinib] | Synergy (considered synergistic if the IC50 value of the second compound decreased by 2-fold or more when EPZ-5676 was added as compared to the DMSO control) | Synergy (considered synergistic if the GI100 (Growth inhibition 100) value of the second compound decreased by 2-fold or more when EPZ-5676 was added as compared to the DMSO control) | Synergy (considered synergistic if the GI100 (Growth inhibition 100) value of the second compound decreased by 2-fold or more when EPZ-5676 was added as compared to the DMSO control) | Synergy (considered synergistic if the GI100 (Growth inhibition 100) value of the second compound decreased by 2-fold or more when EPZ-5676 was added as compared to the DMSO control) | Synergy (considered synergistic if the GI100 (Growth inhibition 100) value of the second compound decreased by 2-fold or more when EPZ-5676 was added as compared to the DMSO control) | Synergy (considered synergistic if the GI100 (Growth inhibition 100) value of the second compound decreased by 2-fold or more when EPZ-5676 was added as compared to the DMSO control) | Synergy (considered synergistic if the GI100 (Growth inhibition 100) value of the second compound decreased by 2-fold or more when EPZ-5676 was added as compared to the DMSO control) | – | – | – | – | – | – | – | – | – | –
COc1cc2c(cc1-c1c(C)noc1C)ncc1[nH]c(=O)n([C@H](C)c3ccccn3)c12 [IBET-151] | – | – | – | – | – | – | – | Synergy (Drug synergy was statistically defined by CI values less than 1) | Synergy (Drug synergy was statistically defined by CI values less than 1) | Synergy (A combination index less than one indicates synergy) | Synergy (Drug synergy was statistically defined by CI values less than 1) | IC50 not achieved | – | – | – | – | –
O=C(Nc1ccc2[nH]nc(-c3ccncc3)c2c1)[C@@H]1CCN(CC(=O)N2CCN(c3ccc(-c4ncccn4)cc3)CC2)C1 [SCH772984] | Synergy (considered synergistic if the IC50 value of the second compound decreased by 2-fold or more when EPZ-5676 was added as compared to the DMSO control) | Synergy (considered synergistic if the GI100 (Growth inhibition 100) value of the second compound decreased by 2-fold or more when EPZ-5676 was added as compared to the DMSO control) | Synergy (considered synergistic if the GI100 (Growth inhibition 100) value of the second compound decreased by 2-fold or more when EPZ-5676 was added as compared to the DMSO control) | Synergy (considered synergistic if the GI100 (Growth inhibition 100) value of the second compound decreased by 2-fold or more when EPZ-5676 was added as compared to the DMSO control) | Synergy (considered synergistic if the GI100 (Growth inhibition 100) value of the second compound decreased by 2-fold or more when EPZ-5676 was added as compared to the DMSO control) | Synergy (considered synergistic if the GI100 (Growth inhibition 100) value of the second compound decreased by 2-fold or more when EPZ-5676 was added as compared to the DMSO control) | Synergy (considered synergistic if the GI100 (Growth inhibition 100) value of the second compound decreased by 2-fold or more when EPZ-5676 was added as compared to the DMSO control) | – | – | – | – | – | Synergy (considered synergistic if the IC50 value of the second compound decreased by 2-fold or more when EPZ-5676 was added as compared to the DMSO control) | – | – | – | –
C[C@]12C=CC(=O)C=C1CC[C@@H]1[C@@H]2[C@@H](O)C[C@@]2(C)[C@H]1CC[C@]2(O)C(=O)CO [Prednisolone] | – | – | – | – | – | – | – | Antagonistic (antagonism by CI>1) | – | – | – | – | – | antagonism | Antagonistic (antagonism by CI>1) | antagonism | enhanced antiproliferative activity

From US20200030355A1, “COMBINATION THERAPY FOR TREATING CANCER” (Epizyme, Inc., priority 2014, published 2020)
